ChEMBL document CHEMBL1201862, “PubChem BioAssay data set” (2004)
Where a name gives a salt, the structure may show the parent alone.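 Test compounds were applied to cells in 96-well plates for 48 hours at 5 doses. GI50 marks 50% less growth.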 Active and inactive are the calls of the source. No stated cut-off is given here; in the data, active = GI50 up to about 1.1 µM and inactive = higher.

How the values were obtained:
Experiment in all cases: NCI-60 cell line screen, 48 h
OVCAR-4 = system: OVCAR-4
SK-MEL-5 = system: SK-MEL-5
UACC-62 = system: UACC-62
Malme-3M = system: Malme-3M
SNB-19 = system: SNB-19
HT-29 = system: HT-29
MDA-MB-231 = system: MDA-MB-231
NCI-H23 = system: NCI-H23
HCC 2998 = system: HCC 2998
MCF7 = system: MCF7
COLO 205 = system: COLO 205
HOP-92 = system: HOP-92
CAKI-1 = system: CAKI-1
OVCAR-8 = system: OVCAR-8
SK-MEL-28 = system: SK-MEL-28
EKVX = system: EKVX
SF-539 = system: SF-539
RPMI-8226 = system: RPMI-8226
HL-60 = system: HL-60
TK-10 = system: TK-10

Structure (SMILES) | GI50 (OVCAR-4) | GI50 (SK-MEL-5) | GI50 (UACC-62) | GI50 (Malme-3M) | GI50 (SNB-19) | GI50 (HT-29) | GI50 (MDA-MB-231) | GI50 (NCI-H23) | GI50 (HCC 2998) | GI50 (MCF7) | GI50 (COLO 205) | GI50 (HOP-92) | GI50 (CAKI-1) | GI50 (OVCAR-8) | GI50 (SK-MEL-28) | GI50 (EKVX) | GI50 (SF-539) | GI50 (RPMI-8226) | GI50 (HL-60) | GI50 (TK-10)
CN(C)CCOC(=O)COc1ccc(Cl)cc1 [CENTROPHENOXINE HYDROCHLORIDE] | > 100 µM (inactive) | > 100 µM (inactive) | > 100 µM (inactive) | > 100 µM (inactive) | > 100 µM (inactive) | > 100 µM (inactive) | > 100 µM (inactive) | > 100 µM (inactive) | > 100 µM (inactive) | 38.8 µM (inactive) | > 100 µM (inactive) | > 100 µM (inactive) | > 100 µM (inactive) | > 100 µM (inactive) | > 100 µM (inactive) | > 100 µM (inactive) | > 100 µM (inactive) |  |  | 
CCN(CC)CCC(=O)NC1c2ccc(Cl)cc2Oc2c(C)cccc21 (stereo unspecified) | 14.3 µM (inactive) | 13.3 µM (inactive) | 16.9 µM (inactive) |  | 14 µM (inactive) | 12.9 µM (inactive) | 20.8 µM (inactive) | 17.4 µM (inactive) | 24.2 µM (inactive) | 15.7 µM (inactive) | 18.6 µM (inactive) | 25.8 µM (inactive) |  | 16.9 µM (inactive) | 14.6 µM (inactive) | 13.4 µM (inactive) | 13.2 µM (inactive) | 24.9 µM (inactive) | 13.9 µM (inactive) | 14.6 µM (inactive)
CC(C)(C)OC(=O)N(CCCCNCc1ccc2ccccc2c1)CCCNCc1ccc2ccccc2c1 | 1.67 µM (inactive) | 1.74 µM (inactive) | 1.66 µM (inactive) |  | 1.76 µM (inactive) | 0.893 µM (active) | 1.02 µM (active) | 1.85 µM (inactive) | 0.254 µM (active) | 1.55 µM (inactive) | 1.17 µM (inactive) | 1.64 µM (inactive) | 1.17 µM (inactive) | 1.67 µM (inactive) | 1.8 µM (inactive) | 1.56 µM (inactive) | 1.44 µM (inactive) | 1.08 µM (active) | 0.204 µM (active) | 1.66 µM (inactive)
CCOC(=O)[C@@H]1ON2O[C@@H](OC3CCCCC3c3ccccc3)C[C@H]3OC(=O)[C@@H]1C32 (stereo partly specified) |  | > 100 µM (inactive) | > 100 µM (inactive) |  |  | > 100 µM (inactive) | 84.7 µM (inactive) | 53.6 µM (inactive) | 66.7 µM (inactive) | > 100 µM (inactive) | > 100 µM (inactive) | > 100 µM (inactive) | 51.9 µM (inactive) | > 100 µM (inactive) |  | > 100 µM (inactive) | > 100 µM (inactive) | > 100 µM (inactive) |  | > 100 µM (inactive)
CN1CCN(C(=S)N(C(=O)c2cccs2)c2ccccc2)CC1 | > 100 µM (inactive) | > 100 µM (inactive) | > 100 µM (inactive) | > 100 µM (inactive) | > 100 µM (inactive) | > 100 µM (inactive) | > 100 µM (inactive) | > 100 µM (inactive) | > 100 µM (inactive) | > 100 µM (inactive) | > 100 µM (inactive) | > 100 µM (inactive) |  | > 100 µM (inactive) | > 100 µM (inactive) |  |  | > 100 µM (inactive) | > 100 µM (inactive) | > 100 µM (inactive)
CN1CCN(c2cc3c(cc2F)c(=O)c(C(=O)O)cn3C2CC2)CC1CC#N (stereo unspecified) | > 100 µM (inactive) | > 100 µM (inactive) | > 100 µM (inactive) | > 100 µM (inactive) | > 100 µM (inactive) | > 100 µM (inactive) | > 100 µM (inactive) | > 100 µM (inactive) | > 100 µM (inactive) | > 100 µM (inactive) | > 100 µM (inactive) |  | > 100 µM (inactive) | > 100 µM (inactive) | > 100 µM (inactive) | > 100 µM (inactive) | > 100 µM (inactive) | > 100 µM (inactive) | > 100 µM (inactive) | > 100 µM (inactive)
O=C(O)CO[C@@]12C#C/C=C\C#C[C@@H]3N(C(=O)Oc4ccccc4)c4ccccc4[C@]14O[C@@]34CCC2 | 56.1 µM (inactive) | 28 µM (inactive) | 11.5 µM (inactive) |  | 37 µM (inactive) | 45.4 µM (inactive) | 12.9 µM (inactive) | 53.5 µM (inactive) | 12.5 µM (inactive) | 14.6 µM (inactive) | 20 µM (inactive) | 57.4 µM (inactive) | 38.7 µM (inactive) | 44.6 µM (inactive) | 52.8 µM (inactive) | > 100 µM (inactive) | 31.4 µM (inactive) | 31.6 µM (inactive) | 26.5 µM (inactive) | > 100 µM (inactive)
COc1cc2c(cc1OC)C(Cc1ccccc1CCCl)=NCC2 | 45.6 µM (inactive) | 22.5 µM (inactive) | 34.2 µM (inactive) |  | 55.3 µM (inactive) | 6.85 µM (inactive) | > 100 µM (inactive) | 22 µM (inactive) | 24.2 µM (inactive) | 49.4 µM (inactive) | 26.6 µM (inactive) | 30.3 µM (inactive) | 76.6 µM (inactive) | 47.2 µM (inactive) | > 100 µM (inactive) | > 100 µM (inactive) | 21.2 µM (inactive) | 24.2 µM (inactive) | 19.8 µM (inactive) | > 100 µM (inactive)
Cc1cc(OCc2nn(CN3CCN(C)CC3)c(=S)n2/N=C/c2ccc(-c3ccc(Cl)cc3Cl)o2)ccc1Cl | 27 µM (inactive) | 44.5 µM (inactive) |  |  |  | 28.2 µM (inactive) | 97.5 µM (inactive) | 39.6 µM (inactive) | 16.1 µM (inactive) | 39.4 µM (inactive) |  | 21 µM (inactive) | 47.9 µM (inactive) | 44 µM (inactive) | 33.1 µM (inactive) | > 100 µM (inactive) | > 100 µM (inactive) | 17.1 µM (inactive) | 22.3 µM (inactive) | 75.2 µM (inactive)
O=c1cc(CNC2CCCC2)[nH]c(=O)[nH]1 | > 100 µM (inactive) | > 100 µM (inactive) | > 100 µM (inactive) | > 100 µM (inactive) | > 100 µM (inactive) | > 100 µM (inactive) | > 100 µM (inactive) | > 100 µM (inactive) | > 100 µM (inactive) | > 100 µM (inactive) | > 100 µM (inactive) |  | > 100 µM (inactive) | > 100 µM (inactive) | > 100 µM (inactive) | > 100 µM (inactive) | > 100 µM (inactive) | > 100 µM (inactive) | > 100 µM (inactive) | > 100 µM (inactive)
Cc1cc(Cl)ccc1NC(=O)/C(CC(=O)CC(c1ccccc1)c1c(O)c2ccccc2oc1=O)=N\O (stereo unspecified) | > 100 µM (inactive) | > 100 µM (inactive) | > 100 µM (inactive) |  | > 100 µM (inactive) | > 100 µM (inactive) | > 100 µM (inactive) | > 100 µM (inactive) | > 100 µM (inactive) | > 100 µM (inactive) | > 100 µM (inactive) | 39.2 µM (inactive) | > 100 µM (inactive) | > 100 µM (inactive) | > 100 µM (inactive) | > 100 µM (inactive) | > 100 µM (inactive) |  | > 100 µM (inactive) | > 100 µM (inactive)
C/C(=N\c1cc(Cl)cc(Cl)c1)c1ccncc1 | > 100 µM (inactive) | > 100 µM (inactive) | 15 µM (inactive) | > 100 µM (inactive) | > 100 µM (inactive) | > 100 µM (inactive) | > 100 µM (inactive) | > 100 µM (inactive) | > 100 µM (inactive) | > 100 µM (inactive) | > 100 µM (inactive) | 63.8 µM (inactive) | > 100 µM (inactive) | > 100 µM (inactive) | > 100 µM (inactive) | > 100 µM (inactive) | > 100 µM (inactive) | 31 µM (inactive) |  | > 100 µM (inactive)
N#CCCSC1SC(=C2SC3=C(SCCS3)S2)SC1SCCC#N (stereo unspecified) | > 100 µM (inactive) | > 100 µM (inactive) | > 100 µM (inactive) |  | > 100 µM (inactive) | > 100 µM (inactive) | > 100 µM (inactive) | > 100 µM (inactive) | > 100 µM (inactive) | > 100 µM (inactive) | > 100 µM (inactive) | > 100 µM (inactive) | > 100 µM (inactive) | > 100 µM (inactive) | > 100 µM (inactive) | > 100 µM (inactive) | > 100 µM (inactive) |  | > 100 µM (inactive) | > 100 µM (inactive)
C=C(COC(=O)C(C)C)[C@H]1Oc2ccc(C(C)=O)cc2[C@@H]1OC(=O)C(C)C | > 100 µM (inactive) | > 100 µM (inactive) | > 100 µM (inactive) | > 100 µM (inactive) | > 100 µM (inactive) | > 100 µM (inactive) | > 100 µM (inactive) | > 100 µM (inactive) | > 100 µM (inactive) | > 100 µM (inactive) | > 100 µM (inactive) |  | > 100 µM (inactive) | > 100 µM (inactive) | > 100 µM (inactive) | > 100 µM (inactive) | > 100 µM (inactive) | 76.4 µM (inactive) | 53.6 µM (inactive) | > 100 µM (inactive)
CCOP(=O)(OCC)/C(C#N)=C/c1cccn1C | > 100 µM (inactive) | > 100 µM (inactive) | > 100 µM (inactive) | > 100 µM (inactive) | > 100 µM (inactive) | > 100 µM (inactive) | > 100 µM (inactive) | > 100 µM (inactive) | > 100 µM (inactive) | > 100 µM (inactive) | > 100 µM (inactive) | > 100 µM (inactive) | > 100 µM (inactive) | > 100 µM (inactive) | > 100 µM (inactive) | > 100 µM (inactive) | > 100 µM (inactive) | > 100 µM (inactive) |  | > 100 µM (inactive)
